Laboratory results taken from article PMC12543283, “TastepepAI: An artificial intelligence platform for taste peptide de novo design” (PLOS Computational Biology, 2025).
Ends that are not written are not given here.

Legend:
[1] = tested on: human pancreatic ductal epithelial cells (HPNE)
Method: (§1) The cytotoxicity of 73 synthetic peptides was evaluated using four human cell lines: human pancreatic ductal epithelial cells (HPNE), human embryonic kidney cells (HEK293T), human umbilical vein endothelial cells (HUVEC), and human bronchial epithelial cells (BEAS-2B). When cell density reached 70% confluence, the complete culture medium was replaced with serum-free maintenance medium, and peptides were added at a final concentration of 100 μM for 36 h. Control groups received only serum-free maintenance medium without peptides. Cell proliferation was assessed using the CCK-8 assay kit (Solarbio, CA1210) according to the manufacturer’s instructions.

[2] = Electronic tongue analysis (Taste-Sensing System SA 402B); set-up: unit not given here; conditions: reference solution 30 mM KCl + 0.3 mM tartaric acid as baseline, first measurement excluded; for Umami: sensor AAE; for Umami / Bitter / Sweet: detection threshold 0, room temperature; for Umami / Bitter / Sour / Salty: four replicates; for Sour: detection threshold -13, room temperature; for Salty: detection threshold -6, room temperature; for Sweet: measured five times
Procedure, shortened: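 Room-temperature electronic-tongue readings with five taste probes, calibrated against a reference of 30 mM KCl and 0.3 mM tartaric acid. Samples at 0.1 mg/mL and 1.0 mg/mL were measured four times, sweetness five times, and the first run was dropped. Detection cut-offs were sour −13, salty −6, others 0.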

[3] = tested on: human umbilical vein endothelial cells (HUVEC)
[4] = tested on: human bronchial epithelial cells (BEAS-2B)
Method: as §1

[5] = tested on: human embryonic kidney cells (HEK293T)

Substance | Average cell viability, HPNE [1] | Cell viability, HPNE, Data1 [1] | Cell viability, HPNE, Data2 [1] | Cell viability, HPNE, Data3 [1] | Umami ([2]; peptide 0.1 mg/mL) | Umami ([2]; peptide 1 mg/mL) | Bitter ([2]; sensor C00, peptide 0.1 mg/mL) | Bitter ([2]; sensor C00, peptide 1 mg/mL) | Sour ([2]; sensor CA0, peptide 0.1 mg/mL) | Sour ([2]; sensor CA0, peptide 1 mg/mL) | Salty ([2]; sensor CT0, peptide 0.1 mg/mL) | Salty ([2]; sensor CT0, peptide 1 mg/mL) | Sweet ([2]; sensor GL1, peptide 0.1 mg/mL) | Sweet ([2]; sensor GL1, peptide 1 mg/mL) | Average cell viability, HUVEC [3] | Cell viability, HUVEC, Data1 [3] | Cell viability, HUVEC, Data2 [3] | Cell viability, HUVEC, Data3 [3] | Average cell viability, BEAS-2B [4] | Cell viability, BEAS-2B, Data1 [4] | further results
PPLENT [TaPep39] | 99.87 | 95.44 | 90.95 | 113.21 | 0.99 | -5.89 | 7.69 | 2.99 | -1.65 | 15.66 | -18.68 | 12.96 | 6.53 | -7.82 | 107.56 | 101.22 | 113.36 | 108.09 | 115.22 | 118.05 | Cell viability, BEAS-2B, Data2 [4]: 113.86; Cell viability, BEAS-2B, Data3 [4]: 113.76; Average cell viability, HEK293T [5]: 100.06; Cell viability, HEK293T, Data1 [5]: 96.81; Cell viability, HEK293T, Data2 [5]: 97.19; Cell viability, HEK293T, Data3 [5]: 106.18
PTELESD [TaPep41] | 95.94 | 86.16 | 113.91 | 87.75 | 1.88 | -3.94 | 7.34 | 3.91 | -3.84 | 9.16 | -20.79 | 2.54 | 8.41 | -8.94 | 103.09 | 108.17 | 102.98 | 98.11 | 110.80 | 117.85 | Cell viability, BEAS-2B, Data2 [4]: 114.36; Cell viability, BEAS-2B, Data3 [4]: 100.20; Average cell viability, HEK293T [5]: 106.18; Cell viability, HEK293T, Data1 [5]: 94.54; Cell viability, HEK293T, Data2 [5]: 110.54; Cell viability, HEK293T, Data3 [5]: 113.47
SAANT [TaPep31] | 100.40 | 105.82 | 112.81 | 82.56 | 1.69 | -4.82 | 7.84 | 2.76 | -3.49 | 12.70 | -19.57 | 12.57 | 8.41 | -5.90 | 99.39 | 91.56 | 100.67 | 105.93 | 110.70 | 118.64 | Cell viability, BEAS-2B, Data2 [4]: 100.10; Cell viability, BEAS-2B, Data3 [4]: 113.36; Average cell viability, HEK293T [5]: 99.34; Cell viability, HEK293T, Data1 [5]: 102.02; Cell viability, HEK293T, Data2 [5]: 100.41; Cell viability, HEK293T, Data3 [5]: 95.58
SEGIQ [TaPep70] | 105.19 | 112.61 | 102.83 | 100.13 | 1.63 | -4.00 | 7.38 | 3.77 | -3.33 | 10.04 | -20.29 | 7.83 | 6.55 | -3.62 | 107.56 | 113.68 | 110.32 | 98.67 | 104.32 | 109.87 | Cell viability, BEAS-2B, Data2 [4]: 102.79; Cell viability, BEAS-2B, Data3 [4]: 100.30; Average cell viability, HEK293T [5]: 99.37; Cell viability, HEK293T, Data1 [5]: 100.88; Cell viability, HEK293T, Data2 [5]: 96.25; Cell viability, HEK293T, Data3 [5]: 100.98
SKKEV [TaPep65] | 94.98 | 94.04 | 105.12 | 85.76 | 1.85 | -4.04 | 7.27 | 4.02 | -3.95 | 10.48 | -17.33 | 11.34 | 2.66 | -3.79 | 96.89 | 105.14 | 94.76 | 90.77 | 100.70 | 99.80 | Cell viability, BEAS-2B, Data2 [4]: 89.83; Cell viability, BEAS-2B, Data3 [4]: 112.46; Average cell viability, HEK293T [5]: 97.48; Cell viability, HEK293T, Data1 [5]: 94.54; Cell viability, HEK293T, Data2 [5]: 99.27; Cell viability, HEK293T, Data3 [5]: 98.61
SLEYEFK [TaPep38] | 96.57 | 86.36 | 94.14 | 109.22 | 2.66 | -3.92 | 7.67 | 3.12 | -5.92 | 9.17 | -19.89 | 10.85 | 7.68 | -5.11 | 107.74 | 112.64 | 110.32 | 100.27 | 103.09 | 93.12 | Cell viability, BEAS-2B, Data2 [4]: 112.36; Cell viability, BEAS-2B, Data3 [4]: 103.79; Average cell viability, HEK293T [5]: 98.90; Cell viability, HEK293T, Data1 [5]: 94.16; Cell viability, HEK293T, Data2 [5]: 101.26; Cell viability, HEK293T, Data3 [5]: 101.26
SLEYLP [TaPep35] | 109.88 | 105.12 | 118.20 | 106.32 | 1.93 | -4.82 | 7.64 | 2.77 | -3.84 | 12.93 | -20.10 | 10.87 | 8.65 | -7.23 | 100.35 | 100.75 | 100.03 | 100.27 | 109.54 | 106.58 | Cell viability, BEAS-2B, Data2 [4]: 102.99; Cell viability, BEAS-2B, Data3 [4]: 119.04; Average cell viability, HEK293T [5]: 98.64; Cell viability, HEK293T, Data1 [5]: 104.29; Cell viability, HEK293T, Data2 [5]: 94.35; Cell viability, HEK293T, Data3 [5]: 97.29
